Test results as given in paper PMC10952572, “Improved PIEZO1 agonism through 4‐benzoic acid modification of Yoda1” (British Journal of Pharmacology, 2023).

Experiments:
[1] = molecular target: T1, human TRPC5 (Homo sapiens, UniProt Q9UL62); test: Intracellular Ca2+ measurement in hTRPC5-TREx cells; assay type: cell-based; details: 10 μM
T1 construct: expressed in transfected cells
T1 sequence (Q9UL62 1-973): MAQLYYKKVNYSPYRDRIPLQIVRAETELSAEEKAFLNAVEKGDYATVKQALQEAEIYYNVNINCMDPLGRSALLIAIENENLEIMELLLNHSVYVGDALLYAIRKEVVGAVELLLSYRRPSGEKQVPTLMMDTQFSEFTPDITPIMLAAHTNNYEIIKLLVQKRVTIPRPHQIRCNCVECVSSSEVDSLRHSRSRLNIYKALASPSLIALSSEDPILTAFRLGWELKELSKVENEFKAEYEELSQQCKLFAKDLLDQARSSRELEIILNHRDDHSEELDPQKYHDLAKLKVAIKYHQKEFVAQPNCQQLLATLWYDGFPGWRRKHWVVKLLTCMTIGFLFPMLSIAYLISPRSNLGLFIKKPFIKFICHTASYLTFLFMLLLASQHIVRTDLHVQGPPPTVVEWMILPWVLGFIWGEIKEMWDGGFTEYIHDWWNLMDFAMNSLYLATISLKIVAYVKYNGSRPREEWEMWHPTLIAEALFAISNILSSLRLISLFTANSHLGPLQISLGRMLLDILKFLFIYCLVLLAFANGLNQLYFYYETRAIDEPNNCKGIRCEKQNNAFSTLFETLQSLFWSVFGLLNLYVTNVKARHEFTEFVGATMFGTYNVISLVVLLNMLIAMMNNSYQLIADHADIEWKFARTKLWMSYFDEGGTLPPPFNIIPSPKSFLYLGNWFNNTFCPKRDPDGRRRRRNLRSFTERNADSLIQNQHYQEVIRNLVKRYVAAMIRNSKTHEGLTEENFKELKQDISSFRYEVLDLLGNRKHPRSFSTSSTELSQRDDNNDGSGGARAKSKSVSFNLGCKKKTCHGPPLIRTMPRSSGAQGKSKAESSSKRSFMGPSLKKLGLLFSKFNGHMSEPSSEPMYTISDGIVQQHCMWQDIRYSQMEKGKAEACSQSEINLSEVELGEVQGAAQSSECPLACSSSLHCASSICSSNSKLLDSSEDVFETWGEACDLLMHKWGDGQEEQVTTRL
Experimental: HEK T‐REx™ 293 cells stably expressing tetracycline‐regulated human TRPC5 have been described previously (Zeng et al., [2004]). For the TRPC5‐expressing cells, selection was achieved by including 5 μg·ml^−1 blasticidin and 400 μg·ml^−1 zeocin in the cell medium. To induce expression, cells were incubated with 1 μg·ml^−1 tetracycline for 24 h prior to experiments. These cells are referred to as hTRPC5‐TREx.
HEK 293‐TREx cells and their stably transfected derivatives or transiently transfected HEK 293 or HeLa cells were seeded at a density of 7.5 × 10^4 cells per well into poly‐D‐lysine‐coated 96‐well plates. The plates were either commercially pre‐coated with poly‐D‐lysine (Greiner Bio‐One #655946) or (Greiner Bio‐One #655090) were coated in‐house with 35 μl of a 10 μg·ml^−1 poly‐D‐lysine (Bio‐Techne, Cultrex # 3439‐100‐01) in sterile deionised water per well for at least 24 h and rinsed three times with 100 μl per well sterile D‐PBS before addition of cells. HUVECs were seeded into tissue culture‐treated 96‐well plates (Greiner Bio‐One #655090) at a density of either 2.5 × 10^4 cells 24 h before experimentation or 1.25 × 10^4 cells 48 h before experimentation. Cells were incubated with 2 μM Fura‐2‐AM (Molecular Probes™) in the presence of 0.01% (wt./vol.) pluronic F127 (Sigma‐Aldrich #P2443) in standard bath solution (SBS) for 1 h at 37°C. Cells were washed with SBS for 30 min at room temperature. Alternatively, if inhibitors were being tested, these were added at this time, immediately following a wash in SBS. (−)‐Englerin A (Akbulut et al., [2015]) was used in SBS containing 0.01% pluronic acid as a dispersing agent to minimise aggregation of compound. Unless otherwise stated, the final concentration of DMSO was 0.2% (vol./vol). […] Measurements were made at room temperature on a 96‐well fluorescence plate reader (FlexStation 3, Molecular Devices, Sunnyvale, CA, USA) controlled by SoftMax Pro software v7.0.3. […]

[2] = In-house aqueous solubility in universal aqueous buffer; assay type: physicochemical; details: for Solubility in aqueous buffer relative to Yoda1: universal aqueous buffer pH 7.4
Experimental: Standard curves for each test compound were constructed. DMSO‐dissolved test compounds were added to universal aqueous buffer (45 mM ethanolamine, 45 mM KH2PO4 and 45 mM KOAc, pH 7.4): acetonitrile 80:20 (298.5 μl) at a final DMSO concentration of 0.5%. Samples were incubated at room temperature with 300 rpm shaking for 30 min; 200 μl of each well was transferred to a 96‐well polypropylene V‐bottomed collection plate, and absorbance readings were taken at 250–500 nm in 10 nm increments. Thus, the λ max was identified at which concentration versus absorbance was plotted to provide standard curves.
After filtration through hydrophilic PTFE 0.2 μm filters, 160 μl sample was transferred to wells of a 96‐well polypropylene V‐bottomed collection plate and 40 μl acetonitrile was added to each well. Absorbance readings were taken at 250–500 nm in 10 nm increments. Solubility was calculated at the appropriate λ max with reference to the standard curve.

| solubility at 1.5 h ([2]; universal aqueous buffer, pH 7.4, aqueous buffer, kinetic from dmso stock, lower limit of detection 0.1 µM, read-out: Estimated solubility in universal aqueous buffer) | SMILES | Ca2+ response in cells expressing TRPC5 in place of PIEZO1 [1] | Solubility in aqueous buffer relative to Yoda1 [2] |
| --- | --- | --- | --- |
|  | O=C([O-])c1ccc(-c2nnc(SCc3c(Cl)cccc3Cl)s2)cc1.[K+] [KC289] | fail to evoke responses | at least 160 times |
| < 0.1 µM | Clc1cccc(Cl)c1CSc1nnc(-c2cnccn2)s1 [Yoda1, 2‐[5‐[[(2,6‐dichlorophenyl)methyl]thio]‐1,3,4‐thiadiazol‐2‐yl]pyrazine] | fail to evoke responses |  |
|  | O=C(O)c1ccc(-c2nnc(SCc3c(Cl)cccc3Cl)s2)cc1 [KC159] | fail to evoke responses | at least 160 times |
